ChEMBL document CHEMBL1126497, “A new type of cytotoxic annonaceous acetogenin: Giganin from goniothalamus giganteus” (1993)
In brackets after ≈: the same amount, converted by molar mass.

Legend:
Type in all cases: functional
[1] = The compound was tested for cytotoxicity against BST cell in brine shrimp; details: Artemia
A549 = test: The compound was tested for cytotoxicity against A-549 cell in human lung carcinoma; details: read-out: ED50 (the source's name)
MCF7 = test: The compound was tested for cytotoxicity against MCF-7 cell in human breast carcinoma; details: read-out: ED50 (the source's name)
HT-29 = test: The compound was tested for cytotoxicity against […] in human colon adenocarcinoma; details: read-out: ED50 (the source's name)

CCCCCCCCCCCCCCC(O)C(O)CC/C=C\CCC(O)CCCCCC(O)CC1=CC(C)OC1=O (centres undefined)
LC50 [1]: 890 µg/mL (≈ 1530 µM) | EC50 (A549): 0.0188 µg/mL (≈ 0.0324 µM) | EC50 (MCF7): 1.03 µg/mL (≈ 1.77 µM) | EC50 (HT-29): 0.00688 µg/mL (≈ 0.0118 µM)
